Assay results published in the OPERA property sets (Mansouri et al. 2018).

Structure (SMILES)	logP	logD (pH 7.4)
CCOC(=O)Cn1cnc(I)c1[N+](=O)[O-]	0.93	–
CCOC(=O)c1cc(=O)[nH]c(=O)[nH]1	0.68	–
CCCCSc1nnc(C(C)C)c(=O)n1N	3.21	–
CCOc1ccc(C=NNC(=N)N)cc1	0.24	–
CC1(C)S[C@@H]2[C@H](NC(=O)C3(N)CCCCC3)C(=O)N2[C@H]1C(=O)O	1.31	–
CCCC(=O)OCn1cc2c(=O)[nH]cnc2n1	0.33	–
Cc1cc(=O)c(=O)[nH][nH]1	-0.3	–
CCC(CC)(C(=O)NC(N)=S)C(=O)OC	1.82	–
N#Cc1ccccc1OCC(O)CNCCNC(=O)Cc1ccc(O)cc1 (stereo unspecified)	0.92	–
CC1c2nc3ccccc3c(=O)n2CN1C (stereo unspecified)	0.85	–
CCn1cc(C(=O)O)c(=O)c2cc(F)c(N3CCN(C)CC3)c(F)c21	0.3	–
CCCCCCNC(=O)n1cc(F)c(=O)[nH]c1=O	2.63	–
Oc1c(Cl)cc(Cl)c(Cl)c1O	3.6	–
O=c1[nH]c(=O)n(C2OC(CO)CC2F)cc1F (stereo unspecified)	-0.72	–
Nc1ccc(C(=O)O)c(O)c1	0.89	–
CON1C(=O)CC2(CCCC2)C1=O	1.15	–
CCCCCN(C)C(=O)c1cccc(Oc2ccccc2)c1	4.43	–
CC(CN1CCCCC1)C(=O)c1ccccc1 (stereo unspecified)	3.51	–
NC1C2CCC1c1cc(C(F)(F)F)ccc1C2 (stereo unspecified)	3.59	–
NS(=O)(=O)c1ccc(Cl)cc1	1.15	–
O=CNCC#CCC(NC(=O)C(Cc1ccc2ccccc2c1)Cc1cccc2ccccc12)C(=O)NC(CC1CCCCC1)C(O)CC(=O)NCCN1CCOCC1 (stereo unspecified)	5.44	–
O=C(OCn1c(=O)[nH]cc(F)c1=O)Oc1ccccc1	1.11	–
c1cc(CN2CCCCC2)cc(OCCCNc2nc3ccccc3s2)c1	5.41	–

Structure (SMILES)	logP	logD (pH 7.4)
Cc1cc(OCC(=O)O)ccc1S(C)(=O)=O	0.54	–
O=[N+]([O-])c1cnc(-c2ccc(F)cc2)n1CCO	1.33	–
CCOC(=O)NC1=NCC(c2cccc(F)c2)N1C (stereo unspecified)	1.84	–
Cc1nc2ccccn2c(=O)c1C	1	–
O=C1CC2(CCCC2)C(=O)N1O	-0.26	–
CNC(=O)NCCCCn1nc(-c2ccccc2)ccc1=O	1.23	–
Nc1ccc(C(=O)O)cc1N	0.13	–
COc1ccc(CON2C(=O)CC3(CCCC3)C2=O)cc1	2.23	–
CN(C)[C@@H]1C(O)=C(C(N)=O)C(=O)[C@@]2(O)C(O)=C3C(=O)c4c(O)cccc4[C@@](C)(O)[C@H]3[C@H](O)[C@@H]12	-0.9	–
Cc1ccn2c(=O)ccnc2c1	0.56	–
O=c1[nH]c(=O)n(Cc2ccccc2)cc1F	0.89	–
CCCc1c2oc(C(=O)O)cc(=O)c2cc2c(=O)cc(C(=O)O)n(CC)c12	2.22	–
COC(=O)c1cnc2n(c1=O)CCCC2	-0.25	–
Cc1ncc([N+](=O)[O-])n1CC(O)Cn1c([N+](=O)[O-])cnc1C	0.31	–
O=c1c2ccccc2nc2n1CCCC2	1.52	–
O=C(O)COc1ccc(Oc2ccc(Cl)cc2Cl)cc1	4.51	–
O=[N+]([O-])c1ccccc1O[C@@H]1O[C@H](CO)[C@@H](O)[C@H](O)[C@H]1O	-0.78	–
CC(=O)Nc1n[nH]c(C)cc1=O	-0.89	–
NS(=O)(=O)c1cc2c(cc1Cl)NC(C(Cl)(Cl)Cl)NS2(=O)=O (stereo unspecified)	0.82	–
Oc1cc(Cl)c(Cl)c(Cl)c1O	3.71	–
CC(=O)Nc1cc(C(C)(C)C)c(O)cc1C	2.18	–
CCCCCCCCO[C@@H]1O[C@H](CO)[C@H](O)[C@H](O)[C@H]1O	1.46	–
CCC(=O)OCC1OC(n2cc(I)c(=O)[nH]c2=O)CC1O (stereo unspecified)	0.68	–

Structure (SMILES)	logP	logD (pH 7.4)
CC(C)COC(=O)N(C)C	2	–
Nc1ccc(S(=O)(=O)c2c(O)cc(O)cc2O)cc1	1.53	–
Clc1ccc(-c2ccc(Cl)cc2)cc1	5.23	–
CCC(CC)COC(N)=O	1.98	–
COC(=O)NC1=NCC(c2ccccc2F)N1C (stereo unspecified)	1.53	–
Cc1ccc(CC#N)cc1	1.67	–
CC(=O)Nc1nc(NC(O)CC(O)CO)c(Cl)nc1[N+](=O)[O-] (stereo unspecified)	-0.66	–
CCc1c(O)c(=O)ccn1CCOC	0.04	–
CCNC(=O)NCCCn1nc(-c2ccccc2)ccc1=O	1.68	–
CCn1cc(C(=O)O)c(=O)c2cc3c(cc21)OCO3	0.94	–
C[N+](C)(C)CC1CSCO1.[I-] (stereo unspecified)	-2.7	–
COc1ccc2c(c1)[nH]c1c(C)nccc12	3.56	–
CNc1cnn(-c2ccccc2)c(=O)c1Cl	1.19	–
O=C1c2ccccc2C(=O)C1c1ccc(C(F)(F)F)cc1	3.78	–
COc1ccc2cc(C(C)C(=O)OCC=C(C)CCC=C(C)C)ccc2c1 (stereo unspecified)	7.77	–
CC(C)(C)c1ccc(OCC(OC(=O)n2ccnc2)C(C)(C)C)cc1 (stereo unspecified)	4.82	–
N=C(NCC#CCC(NC(=O)C(Cc1ccc2ccccc2c1)Cc1cccc2ccccc12)C(=O)NC(CC1CCCCC1)C(O)CC(=O)NCCN1CCOCC1)N[N+](=O)[O-] (stereo unspecified)	4.73	–
CC1c2nc3ccccc3c(=O)n2CN1CCO (stereo unspecified)	0.46	–
Nc1cc(Cl)c(Cl)cc1Cl	3.45	–
Fc1ccccc1C1=NCC(=S)N(CC(F)(F)F)c2ccc(Cl)cc21	4.03	–
Cc1ccc(Cl)c(NS(=O)(=O)c2nc(C)n(-c3ccccc3)n2)c1Cl	4.4	–
CSc1nnc(-c2cc(Cl)cc(Cl)c2)c(=O)n1N	3.02	–
CCCCCCCC=CCCCCCCC(=O)O	6.58	–

Structure (SMILES)	logP	logD (pH 7.4)
CSc1ccc(OCC(OC(=O)n2ccnc2)C(C)(C)C)cc1 (stereo unspecified)	4.03	–
C=C1C(=O)OC2CC3=CC(CC4(C)OC4C(O)C12)OC3=O (stereo unspecified)	-0.64	–
O=[N+]([O-])c1c(Cl)c(Cl)c(Cl)c(Cl)c1Cl	4.64	–
CCOP(=S)(OCC)Oc1nc(Cl)c(Cl)cc1Cl	4.96	–
Cc1nn(-c2ccccc2)c(Nc2ccc([N+](=O)[O-])cc2)c1[N+](=O)[O-]	2.78	–
CNC=Nc1ccc(C)cc1C	2.92	–
COC(=O)NC1=NCC(c2ccccc2Br)N1 (stereo unspecified)	1.85	–
CCOC(=O)c1cnc2n(c1=O)CCC(C)C2 (stereo unspecified)	0.66	–
CCOC(=O)OCn1cc(F)c(=O)[nH]c1=O	-0.04	–
CCCOC(=O)n1c(NC(=O)OC)nc2cc(C(=O)c3ccccc3)ccc21	3.43	–
COC(=O)NC1=NCC(c2ccc(C=O)cc2)N1C (stereo unspecified)	0.74	–
Cc1c(F)c(F)c(C(=O)O)c(F)c1F	3.15	–
Cn1nnnc1SCC1=C(C(=O)O)N2C(=O)[C@@H](NC(=O)[C@H](O)c3ccccc3)[C@H]2SC1	0.5	–
Nc1nc(=O)c2[nH]c(N)c(Cc3cccs3)c2[nH]1	1.01	–
COP(=S)(OC)Oc1cc(Cl)c(Cl)cc1Cl	4.88	–
CCN(C)C(=O)CCn1ccc(=O)c(O)c1C	-0.69	–
CC(=O)Nc1ccn(C2OC(CO)C(O)C2O)c(=O)n1 (stereo unspecified)	-1.35	–
NC(=O)NCCCCCCn1nc(-c2ccccc2)ccc1=O	1.82	–
CC(N)C(=O)O (stereo unspecified)	-2.85	–
CC1CC2CC=CCC2(N)c2ccccc21 (stereo unspecified)	3.4	–
CN(Cc1ccccc1)C(=O)C(Cc1ccccc1)NC(=O)C(Cc1cn(C(=O)OCc2ccccc2)c2ccccc12)NC(=O)CC1NC(=O)C2C3CCC(CC3)N2C1=O (stereo unspecified)	5.66	–
NC(=O)OC1c2ccccc2C2CCCCC2C1OC(N)=O (stereo unspecified)	2.17	–
CCCCN1Cn2c(nc3ccccc3c2=O)C1C (stereo unspecified)	1.6	–

Structure (SMILES)	logP	logD (pH 7.4)
Cc1ccc(C)c(C)c1C	4	–
N=C(N)NN=Cc1ccc(Cl)c([N+](=O)[O-])c1	0.53	–
COc1ccc(C(=O)OCC2OC(n3cc(I)c(=O)[nH]c3=O)CC2O)cc1 (stereo unspecified)	1.38	–
CC(C)Oc1ccc(OCC(OC(=O)n2ccnc2)C(C)(C)C)cc1 (stereo unspecified)	4.08	–
CCOCCOCCOP(=O)(N1CC1)N1CC1	0.1	–
Cc1ccccc1C(=O)CCN1CCCCC1	3.54	–
Clc1cccc(-c2cc(Cl)cc(Cl)c2)c1	5.81	–
Cc1ccc(C(=O)C(C)CN2CCCCC2)cc1 (stereo unspecified)	3.65	–
Nc1ccc(C(=O)O)c(N)c1	-0.31	–
CCCCC(CC)C(=O)N1c2ccc(C)cc2C2CN(C)CCC21 (stereo unspecified)	4.14	–
CCCCNC(=O)CCn1ccc(=O)c(O)c1C	-0.1	–
c1ccc(C2(N3CCCCC3)CCCCC2)cc1	4.69	–
CC(C)c1ncc([N+](=O)[O-])[nH]1	0.9	–
N#Cc1ccc(Cl)cc1	2.47	–
C=CCC(CC=C)(C(=O)NC(N)=O)C(=O)OC	1.37	–
O=c1c2ccccc2nc2n1CCCCC2	2	–
CCCCCCCS[C@@H]1O[C@H](CO)[C@H](O)[C@H](O)[C@H]1O	1.5	–
CC(C)(C)C(COc1ccc(Br)cc1)OC(=O)n1ccnc1 (stereo unspecified)	4.37	–
CN(C)C(=O)NCCCn1nc(-c2ccccc2)ccc1=O	1.61	–
CCOP(=O)(OCC)OC(=CCl)c1ccc(Cl)cc1Cl	3.81	–
CCCC(=O)OCC1OC(n2cc(F)c(=O)[nH]c2=O)CC1OC(=O)CCC (stereo unspecified)	1.9	–
CC(C)c1ccc(C2C(=O)c3ccccc3C2=O)cc1	4.43	–
COCCn1ccc(=O)c(O)c1C	-0.41	–

Structure (SMILES)	logP	logD (pH 7.4)
CCOC(=O)C1=C(C)NC(C)=C(C(=O)OCC)C1c1ccccc1/C=C/C(=O)OC(C)(C)C	5.2	–
O=c1[nH]c(=S)ccn1[C@H]1CC[C@@H](CO)O1	-0.21	–
CNC(=S)NCCCCC(NC(=O)C(CC(=O)N1CCOCC1)Cc1cccc2ccccc12)C(=O)NC(CC1CCCCC1)C(O)CC(=O)NCCN1CCOCC1 (stereo unspecified)	1.68	–
CC(C)(C)C(COc1ccc([N+](=O)[O-])cc1)OC(=O)n1ccnc1 (stereo unspecified)	3.35	–
CCOc1cccc(-c2nnc(C)n(NC)c2=O)c1	1.91	–
Cn1c(=O)c2[nH]c(Cl)nc2n(C)c1=O	–	-0.85
O=C(O)CCCC(=O)c1ccccc1	1.49	–
COC(=O)NC1=NCC(c2cc(Br)ccc2Br)N1C (stereo unspecified)	2.77	–
O=C1COC(=O)N1c1ccccc1	0.93	–
NC(=O)NCCC[C@H](N)C(=O)O	-3.19	–
CN(Cc1cccc(Br)c1)N=O	1.65	–
COC(=O)NC1=NCC(c2cccc(F)c2)N1 (stereo unspecified)	1.41	–
Cc1c(O)c(=O)ccn1CCCCO	-0.74	–
CCCCc1ccc(OCC(OC(=O)n2ccnc2)C(C)(C)C)cc1 (stereo unspecified)	4.97	–
O=C(O)c1cc(I)ccc1O	3.34	–
CC(C)c1ccc(OCC(OC(=S)n2ccnc2)C(C)(C)C)cc1 (stereo unspecified)	5.21	–
Cc1c(O)c(=O)ccn1CCC(=O)N(C)C	-1.16	–
CCOC(=O)C1(c2ccccc2)CCN(C)CC1	2.72	–
CN1C(O)C(O)C(O)C(O)C1CO (stereo unspecified)	-2.4	–
O=C(O)CCc1ccc(OCc2ccccc2)cc1	3.31	–
O=C1C[N+]([O-])=C(c2ccccc2)c2cc(Cl)ccc2N1CCO	0.82	–
